Test results as given in patent US10556902B2 (Asceneuron SA, priority 2016, dated 2020).

Biological target: His-Tagged hOGA (human O-GlcNAcase) (Homo sapiens (Human), UniProt O60502)
Assay: Human O-GlcNAcase enzyme inhibition assay;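 also: reactions contained 20 nM His-tagged hOGA enzyme with 10 µM FL-GlcNAc substrate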
Assay type: biochemical
Conditions: OGA enzyme inhibition assay; FL-GlcNAc substrate, pH 6.5; activity classes defined in μM; read-out: OGA IC50
Procedure: Then, 20 nM of His-Tagged hOGA and 10 μM of FL-GlcNAc (Fluorescein mono-beta-D-(2-deoxy-2-N-acetyl) glucopyranoside; Marker Gene Technologies Inc, M1485) were added to the 384-well plate for a final volume of 20 μl.

Sequence of His-Tagged hOGA (human O-GlcNAcase) (O60502 whole entry): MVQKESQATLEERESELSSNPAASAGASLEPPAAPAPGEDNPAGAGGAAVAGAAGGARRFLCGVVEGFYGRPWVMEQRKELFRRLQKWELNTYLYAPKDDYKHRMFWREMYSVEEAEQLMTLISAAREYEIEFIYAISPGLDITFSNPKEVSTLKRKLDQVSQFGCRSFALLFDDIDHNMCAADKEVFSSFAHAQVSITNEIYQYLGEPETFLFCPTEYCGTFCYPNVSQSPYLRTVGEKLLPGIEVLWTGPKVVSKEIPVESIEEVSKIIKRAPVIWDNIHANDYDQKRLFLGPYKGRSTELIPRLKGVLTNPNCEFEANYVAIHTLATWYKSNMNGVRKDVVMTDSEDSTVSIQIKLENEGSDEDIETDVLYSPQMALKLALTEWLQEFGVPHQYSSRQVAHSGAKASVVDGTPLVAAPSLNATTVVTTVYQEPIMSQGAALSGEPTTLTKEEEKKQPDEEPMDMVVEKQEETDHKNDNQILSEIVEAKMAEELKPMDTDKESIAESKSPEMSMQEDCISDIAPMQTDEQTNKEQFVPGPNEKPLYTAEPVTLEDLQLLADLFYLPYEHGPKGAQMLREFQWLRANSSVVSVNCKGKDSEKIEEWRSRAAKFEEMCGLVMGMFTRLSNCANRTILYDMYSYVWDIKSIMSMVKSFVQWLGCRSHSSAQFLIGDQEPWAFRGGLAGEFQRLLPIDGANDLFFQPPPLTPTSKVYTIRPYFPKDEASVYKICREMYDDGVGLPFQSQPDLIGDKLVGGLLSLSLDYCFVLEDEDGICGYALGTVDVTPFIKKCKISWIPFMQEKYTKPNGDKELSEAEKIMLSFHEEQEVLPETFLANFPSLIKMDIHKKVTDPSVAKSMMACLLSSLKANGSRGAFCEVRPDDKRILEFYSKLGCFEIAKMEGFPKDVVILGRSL

IC50 [µM] | Structure (SMILES)
< 0.05 | CC(c1ccc2c(c1)OCC2)N1CCN(c2ccc(C(C)(C)O)cn2)CC1 (racemic) [Example 48, 2-(6-(4-(1-(2,3-dihydrobenzofuran-6-yl)ethyl)piperazin-1-yl)pyridin-3-yl)propan-2-ol]
< 0.05 | COC(=O)c1ccnc(N2CCN(C(C)c3ccc4c(c3)OCC4)CC2)n1 (racemic) [Example 102, Methyl 2-(4-(1-(2,3-dihydrobenzofuran-6-yl)ethyl)piperazin-1-yl)pyrimidine-4-carboxylate]
< 0.05 | CC(c1ccc2c(c1)OCC2)N1CCN(c2ncc(CO)cn2)CC1 (racemic) [Example 75, (2-(4-(1-(2,3-Dihydrobenzofuran-6-yl)ethyl)piperazin-1-yl)pyrimidin-5-yl) methanol]
< 0.05 | CC(c1ccc2c(c1)OCC2)N1CCN(c2ccc(S(C)(=O)=O)nn2)CC1 (racemic) [Example 45, 3-(4-(1-(2,3-dihydrobenzofuran-6-yl)ethyl)piperazin-1-yl)-6-(methylsulfonyl)pyridazine]
< 0.05 | CC(O)c1nnc(N2CCN(C(C)c3ccc4c(c3)OCC4)CC2)s1 (racemic) [Example 114, 1-(5-(4-(1-(2,3-dihydrobenzofuran-6-yl)ethyl)piperazin-1-yl)-1,3,4-thiadiazol-2-yl)ethan-1-ol]
< 0.05 | CC(c1ccc2scnc2c1)N1CCN(c2ncc(CO)cn2)CC1 (racemic) [Example 73, (2-(4-(1-(benzo[d]thiazol-5-yl)ethyl)piperazin-1-yl)pyrimidin-5-yl)methanol]
< 0.05 | CC(c1ccc2c(c1)OCC2)N1CCN(c2ccc(S(C)(=O)=O)cn2)CC1 (racemic) [Example 71]
0.2 to 1 | CC(c1ccc2c(c1)OCC2)N1CCC(n2cc(C(F)(F)F)cn2)CC1 (racemic) [Example 29, 1-(1-(2,3-Dihydrobenzofuran-6-yl)ethyl)-4-(4-(trifluoromethyl)-1H-pyrazol-1-yl) piperidine]
< 0.05 | CC(c1ccc2c(c1)OCC2)N1CCN(c2ncc(C(=O)N(C)C)cn2)CC1 (racemic) [Example 100, 2-(4-(1-(2,3-dihydrobenzofuran-6-yl)ethyl)piperazin-1-yl)-N,N-dimethylpyrimidine-5-carboxamide]
0.05 to 0.2 | CC(c1ccc2nccnc2c1)N1CCN(c2ccc(C(O)C(F)(F)F)cn2)CC1 (racemic) [Example 56, 2,2,2-trifluoro-1-(6-(4-(1-(quinoxalin-6-yl)ethyl)piperazin-1-yl)pyridin-3-yl)ethan-1-ol]
< 0.05 | CC(c1ccc2c(c1)OCC2)N1CCN(c2nc3c(s2)C(=O)N(C)CC3)CC1 (racemic) [Example 13, 2-(4-(1-(2,3-dihydrobenzofuran-6-yl)ethyl)piperazin-1-yl)-5-methyl-6,7-dihydrothiazolo[5,4-c]pyridin-4(5H)-one]
< 0.05 | CC(O)c1ccc(N2CCN(C(C)c3ccc4c(c3)OCC4)CC2)nc1 (racemic) [Example 47, 1-(6-(4-(1-(2,3-dihydrobenzofuran-6-yl)ethyl)piperazin-1-yl)pyridin-3-yl)ethan-1-ol]
< 0.05 | CC(c1ccc2c(c1)OCC2)N1CCN(c2ncc(C3(O)CCCCC3)cn2)CC1 (racemic) [Example 80, 1-(2-(4-(1-(2,3-dihydrobenzofuran-6-yl)ethyl)piperazin-1-yl)pyrimidin-5-yl)cyclohexan-1-ol]
0.2 to 1 | CC(c1ccc2nccnc2c1)N1CCN(c2nnc(C(=O)N(C)C)s2)CC1 (racemic) [Example 122, N,N-dimethyl-5-(4-(1-(quinoxalin-6-yl)ethyl)piperazin-1-yl)-1,3,4-thiadiazole-2 carboxamide]
< 0.05 | CC(c1ccc2c(c1)OCC2)N1CCN(c2ncc(C3(O)CCOCC3)cn2)CC1 (racemic) [Example 81, 4-(2-(4-(1-(2,3-dihydrobenzofuran-6-yl)ethyl)piperazin-1-yl)pyrimidin-5-yl)tetrahydro-2H-pyran-4-ol]
< 0.05 | CC(c1ccc2c(c1)OCC2)N1CCN(c2ccc(C(=O)O)cn2)CC1 (racemic) [Example 65, 6-(4-(1-(2,3-Dihydrobenzofuran-6-yl)ethyl)piperazin-1-yl)nicotinic acid]
0.2 to 1 | COc1ccc(N2CCN(C(C)c3ccc4nccnc4c3)CC2)cn1 (racemic) [Example 53, 6-(1-(4-(6-methoxypyridin-3-yl)piperazin-1-yl)ethyl)quinoxaline]
< 0.05 | CC(c1ccc2c(c1)OCC2)N1CCN(c2nnc(CO)s2)CC1 (racemic) [Example 113, (5-(4-(1-(2,3-dihydrobenzofuran-6-yl)ethyl)piperazin-1-yl)-1,3,4-thiadiazol-2-yl)methanol]
< 0.05 | CC(c1ccc2c(c1)OCC2)N1CCN(c2ncc(C(O)C(F)(F)F)cn2)CC1 (racemic) [Example 77, 1-(2-(4-(1-(2,3-dihydrobenzofuran-6-yl)ethyl)piperazin-1-yl)pyrimidin-5-yl)-2,2,2-trifluoroethan-1-ol]
< 0.05 | CNC(=O)c1ccc(N2CCN(C(C)c3ccc4c(c3)OCC4)CC2)nc1 (racemic) [Example 64, 6-(4-(1-(2,3-dihydrobenzofuran-6-yl)ethyl)piperazin-1-yl)-N-methylnicotinamide]
0.2 to 1 | CC(c1ccc2nccnc2c1)N1CCN(c2ccc(C3(O)CCCCC3)cn2)CC1 (racemic) [Example 60, 1-(6-(4-(1-(quinoxalin-6-yl)ethyl)piperazin-1-yl)pyridin-3-yl)cyclohexan-1-ol]
< 0.05 | CC(c1ccc2c(c1)OCC2)N1CCN(c2ncc(C3(O)CCOC3)cn2)CC1 (racemic) [Example 79, 3-(2-(4-(1-(2,3-dihydrobenzofuran-6-yl)ethyl)piperazin-1-yl)pyrimidin-5-yl)tetrahydrofuran-3-ol]
1 to 10 | CC(=O)Nc1nnc(N2CCN(C(C)c3ccc4c(c3)OCC4)CC2)s1 (single isomer, unassigned) [Example 108]

Structure (SMILES) | IC50 [µM]
CC(c1ccc2nccnc2c1)N1CCN(c2ccc(C(=O)O)cn2)CC1 (racemic) [Example 67, 6-(4-(1-(quinoxalin-6-yl)ethyl)piperazin-1-yl) nicotinic acid] | 0.05 to 0.2
CC(=O)Nc1nnc(N2CCN([C@@H](C)c3cnc4cccnc4c3)CC2)s1 [Example 222] | 0.05 to 0.2
CC(c1ccc2nccnc2c1)N1CCN(c2nnc(CN)s2)CC1 (racemic) [Example 126, (5-(4-(1-(quinoxalin-6-yl)ethyl)piperazin-1-yl)-1,3,4-thiadiazol-2-yl)methanamine] | 0.2 to 1
CC(=O)Nc1nnc(N2CCN(C(C)c3cnc4cccnc4c3)CC2)s1 (racemic) [Example 111, N-(5-(4-(1-(1,5-naphthyridin-3-yl)ethyl)piperazin-1-yl)-1,3,4-thiadiazol-2-yl)acetamide] | 0.05 to 0.2
CCOC(=O)c1cnn(C2CCN(C(C)c3ccc4c(c3)OCC4)CC2)c1 (racemic) [Example 32, Ethyl 1-(1-(1-(2,3-dihydrobenzofuran-6-yl)ethyl)piperidin-4-yl)-1H-pyrazole-4-carboxylate] | 0.05 to 0.2
CC(c1ccc2c(c1)OCC2)N1CCN(c2nc3c(s2)CNCC3)CC1 (single isomer, unassigned) [Example 17] | < 0.05
CC(c1ccc2nccnc2c1)N1CCN(c2nc3c(s2)C(=O)N(C)CC3)CC1 (racemic) [Example 14, 5-methyl-2-(4-(1-(quinoxalin-6-yl)ethyl)piperazin-1-yl)-6,7-dihydrothiazolo[5,4-c]pyridin-4(5H)-one] | 0.2 to 1
CC(c1ccc2nccnc2c1)N1CCN(c2ccc(I)nn2)CC1 (racemic) [Example 43] | 0.2 to 1
CC(c1ccc2nccnc2c1)N1CCN(c2ccc(C3(O)CCOCC3)cn2)CC1 (racemic) [Example 57, 4-(6-(4-(1-(quinoxalin-6-yl)ethyl)piperazin-1-yl)pyridin-3-yl)tetrahydro-2H-pyran-4-ol] | 0.05 to 0.2
CC(c1ccc2nccnc2c1)N1CCN(c2n[nH]c(=O)s2)CC1 (racemic) [Example 21, 5-(4-(1-(quinoxalin-6-yl)ethyl)piperazin-1-yl)-1,3,4-thiadiazol-2(3H)-one] | 0.05 to 0.2
Cc1nnc(C2CCN(C(C)c3ccc4nccnc4c3)CC2)o1 (racemic) [Example 24, 2-methyl-5-(1-(1-(quinoxalin-6-yl)ethyl)piperidin-4-yl)-1,3,4-oxadiazole] | 0.2 to 1
CC(c1ccc2nccnc2c1)N1CCN(c2ccc(C3(O)CCOC3)cn2)CC1 (racemic) [Example 58, 3-(6-(4-(1-(quinoxalin-6-yl)ethyl)piperazin-1-yl)pyridin-3-yl)tetrahydrofuran-3-ol] | 0.05 to 0.2
CC(c1ccc2nccnc2c1)N1CCN(c2ccc(C(C)(C)O)cn2)CC1 (racemic) [Example 51, 2-(6-(4-(1-(quinoxalin-6-yl)ethyl)piperazin-1-yl)pyridin-3-yl) propan-2-ol] | 0.05 to 0.2
CC(c1ccc2c(c1)OCC2)N1CCN(c2nc3c(s2)CNCC3)CC1 (racemic) [Example 15, 2-(4-(1-(2,3-dihydrobenzofuran-6-yl)ethyl)piperazin-1-yl)-4,5,6,7-tetrahydrothiazolo[5,4-c]pyridine] | < 0.05
CCOC(=O)c1nnc(N2CCN(C(C)c3ccc4c(c3)OCC4)CC2)s1 (racemic) [Example 117, Ethyl 5-(4-(1-(2,3-dihydrobenzofuran-6-yl)ethyl)piperazin-1-yl)-1,3,4-thiadiazole-2-carboxylate] | 0.05 to 0.2
CC(=O)N1CCc2nc(N3CCN(C(C)c4ccc5nccnc5c4)CC3)sc2C1 (racemic) [Example 11, 1-(2-(4-(1-(quinoxalin-6-yl)ethyl)piperazin-1-yl)-6,7-dihydrothiazolo[5,4-c]pyridin-5(4H)-yl)ethan-1-one] | 0.05 to 0.2
CC(=O)NCc1nnc(N2CCN(C(C)c3ccc4nccnc4c3)CC2)s1 (racemic) [Example 112, N-((5-(4-(1-(quinoxalin-6-yl)ethyl)piperazin-1-yl)-1,3,4-thiadiazol-2-yl)methyl)acetamide] | 0.05 to 0.2
CC(c1ccc2nccnc2c1)N1CCN(c2cccc(C(=O)N(C)C)n2)CC1 (racemic) [Example 69, N, N-dimethyl-6-(4-(1-(quinoxalin-6-yl)ethyl)piperazin-1-yl) picolinamide] | 0.2 to 1
